The text below walks through data of patent US10463730B2 (priority 2003, dated 2019).

The test has as its system xenogeneic GI-101A solid breast carcinoma tumors. More on the design: species or system nu-/nu-mice. The following applies: in vivo.

Turning to `Nc1nc2c(ncn2COC(CO)CO)c(=O)[nH]1` [PBS+GCV, gancyclovir], the “Increase of average volume of tumors” value is given as 91.8%.
